Read-outs that look alike come from different tables or passages of the source.
Molecular target: T1, F508delCFTR (Homo sapiens, UniProt P13569, DEL508-508)
T1 construct: expressed in transfected cells; host or cells: CFBE41o- human lung-derived epithelial cells (CFBE4lo-F508delCFTR-HRP), doxycycline-inducible
Assay: Cell Surface Expression-Horse Radish Peroxidase (CSE-HRP) Assay;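 as to Maximum % activity (with co-corrector): co-corrector and positive control are both the same reference corrector at 2 µM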;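 as to Maximum % activity (without co-corrector): percent of the 2 µM on-plate positive control corrector response above DMSO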
Type: cell-based
Conditions: for Maximum % activity (with co-corrector) / Emax: maximum at any tested concentration, normalized to on-plate positive control; for Emax: read-out: Maximum % activity (without co-corrector)

[1] = CSE-HRP, test compound without co-corrector, read-out: EC50 (without co-corrector)
[2] = CSE-HRP, with co-corrector (2 μM of 3-[(2R,4R)-4-({[1-(2,2-difluoro-1,3-benzodioxol-5-yl)cyclopropyl]carbonyl}amino)-7-methoxy-3,4-dihydro-2H-chromen-2-yl]benzoic acid), read-out: EC50 (with co-corrector)
[3] = CSE-HRP, with co-corrector (2 μM)
[4] = test compound without co-corrector, read-out: EC50 (without co-corrector)
[5] = with co-corrector (2 μM of 3-[(2R,4R)-4-({[1-(2,2-difluoro-1,3-benzodioxol-5-yl)cyclopropyl]carbonyl}amino)-7-methoxy-3,4-dihydro-2H-chromen-2-yl]benzoic acid), read-out: EC50 (with co-corrector)
[6] = test compound without co-corrector
[7] = with co-corrector (2 μM of 3-[(2R,4R)-4-({[1-(2,2-difluoro-1,3-benzodioxol-5-yl)cyclopropyl]carbonyl}amino)-7-methoxy-3,4-dihydro-2H-chromen-2-yl]benzoic acid)

T1 sequence (P13569 with tags, fused parts or gaps DEL508-508): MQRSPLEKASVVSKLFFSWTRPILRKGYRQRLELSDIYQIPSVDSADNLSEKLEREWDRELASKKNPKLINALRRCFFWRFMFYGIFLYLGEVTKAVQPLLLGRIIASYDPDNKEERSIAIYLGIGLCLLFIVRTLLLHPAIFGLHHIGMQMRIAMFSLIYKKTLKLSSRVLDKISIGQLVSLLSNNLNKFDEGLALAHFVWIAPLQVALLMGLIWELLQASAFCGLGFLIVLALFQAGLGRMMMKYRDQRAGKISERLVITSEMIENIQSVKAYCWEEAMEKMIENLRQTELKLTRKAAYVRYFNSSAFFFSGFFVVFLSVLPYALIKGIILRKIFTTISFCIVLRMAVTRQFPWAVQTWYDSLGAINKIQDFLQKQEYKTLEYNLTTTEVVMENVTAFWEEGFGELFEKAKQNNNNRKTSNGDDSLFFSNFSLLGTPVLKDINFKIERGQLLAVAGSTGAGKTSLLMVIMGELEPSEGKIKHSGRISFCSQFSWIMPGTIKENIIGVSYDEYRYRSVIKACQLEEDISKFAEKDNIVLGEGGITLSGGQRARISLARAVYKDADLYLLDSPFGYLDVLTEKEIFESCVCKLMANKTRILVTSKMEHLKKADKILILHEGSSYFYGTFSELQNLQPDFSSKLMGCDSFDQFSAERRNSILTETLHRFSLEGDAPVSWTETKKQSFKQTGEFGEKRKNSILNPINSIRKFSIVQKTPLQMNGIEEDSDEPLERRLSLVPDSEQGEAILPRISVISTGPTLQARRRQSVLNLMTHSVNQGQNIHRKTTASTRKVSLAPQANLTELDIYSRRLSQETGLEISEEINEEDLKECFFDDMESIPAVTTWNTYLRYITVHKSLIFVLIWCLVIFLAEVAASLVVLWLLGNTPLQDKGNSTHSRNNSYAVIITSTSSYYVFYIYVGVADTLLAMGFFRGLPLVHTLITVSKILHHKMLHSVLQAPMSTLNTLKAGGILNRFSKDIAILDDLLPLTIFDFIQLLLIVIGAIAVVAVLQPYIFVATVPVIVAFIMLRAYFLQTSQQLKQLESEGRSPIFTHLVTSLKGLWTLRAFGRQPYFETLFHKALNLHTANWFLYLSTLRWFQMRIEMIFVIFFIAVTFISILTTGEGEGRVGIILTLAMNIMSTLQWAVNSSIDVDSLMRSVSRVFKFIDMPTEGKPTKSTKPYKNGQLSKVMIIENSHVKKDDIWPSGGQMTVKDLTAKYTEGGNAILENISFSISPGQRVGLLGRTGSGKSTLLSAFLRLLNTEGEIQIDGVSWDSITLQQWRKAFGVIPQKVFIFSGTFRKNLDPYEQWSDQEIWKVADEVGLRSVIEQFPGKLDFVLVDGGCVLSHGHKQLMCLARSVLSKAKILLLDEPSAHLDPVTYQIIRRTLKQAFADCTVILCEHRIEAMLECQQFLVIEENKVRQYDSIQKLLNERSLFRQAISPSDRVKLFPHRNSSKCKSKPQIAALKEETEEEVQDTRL

Compound	EC50 [1] [µM]	EC50 [2] [µM]	Maximum % activity (with co-corrector) [3]	Emax (CSE-HRP, without co-corrector) [%]	EC50 [4] [µM]	EC50 [5] [µM]	Maximum % activity (with co-corrector) (with co-corrector (2 μM))	Emax (without co-corrector) [%]	Emax [6] [%]	Maximum % activity (with co-corrector) [7]
COc1cccc([C@@H]2[C@H](NCc3cc(C(F)(F)F)ccc3OC)[C@@H](C(C)(C)C)[C@H](C(=O)O)N2C(=O)C2CCCCC2)n1 (racemic) [Example I-19]					1 to 10	1 to 10	+++ (≥350)	100 to 200		
COc1cc(Cl)ccc1CN[C@@H]1[C@@H](C(C)(C)C)[C@H](C(=O)O)N(C(=O)C2CCOC(C)(C)C2)[C@@H]1c1ccccc1N(C)C (mixture of isomers) [II-26]	1 to 10	1 to 10	+++ (≥350)	> 200						
COc1ccc(C(F)(F)F)cc1CN[C@H]1[C@H](C2(C)CC2)[C@@H](C(=O)O)N(C(=O)C2CCCCC2)[C@H]1c1ccccc1 [Example I-136]					1 to 10	1 to 10	+++ (≥350)	100 to 200		
COc1ccc(C(F)(F)F)cc1CN[C@H]1[C@H](C(C)(C)C)[C@@H](C(=O)O)N(C(=O)C2CCCCC2)[C@H]1c1ncccc1Cl [III-164]					> 10	1 to 10	++ (≥150 and <350)		< 100	
COc1ccc([Si](C)(C)C)cc1CN[C@H]1[C@H](C(C)(C)C)[C@@H](C(=O)O)N(C(=O)[C@H]2CCCC(F)(F)C2)[C@H]1c1ccccc1 [II-441]					< 1	< 1				
COc1cc(C(F)(F)F)ccc1CN[C@H]1[C@H](C(C)(C)C)[C@@H](C(=O)O)N(C(=O)[C@@H]2CCCCO2)[C@H]1c1cccc2c1OCC2 [Example I-300]	1 to 10	1 to 10	+++ (≥350)	> 200						
COc1ccc(C(C)(C)C)cc1CN[C@H]1[C@H](C(C)(C)C)[C@@H](C(=O)O)N(C(=O)C2COc3ccccc3O2)[C@H]1c1cccnc1N(C)C (single isomer, unassigned) [II-471]					> 10	< 1			< 100	++ (≥150 and <350)
CC(C)(C)[C@H]1[C@H](NCc2cc(Cl)ccc2O)[C@H](c2ccccc2)N(C(=O)C2CCCCC2)[C@@H]1C(=O)O [Example I-51]					> 10	1 to 10	++ (≥150 and <350)	< 100		
CC(C)(C)[C@H]1[C@H](Nc2cc3ccccc3cn2)[C@H](c2ccccc2)N(C(=O)C2CCCCC2)[C@@H]1C(=O)O [III-156]					< 1	1 to 10	++ (≥150 and <350)		< 100	
CO[C@@H](C(=O)N1[C@H](c2cccnc2N(C)C)[C@H](Nc2cc(C(F)(F)F)cc(C)n2)[C@@H](C(C)(C)C)[C@@H]1C(=O)O)c1ccccc1 (racemic) [III-89]					> 10	> 10			< 100	+ (<150)
COc1ncc(C2CCC2)cc1CN[C@H]1[C@H](C(C)(C)C)[C@@H](C(=O)O)N(C(=O)[C@H]2CCC[C@@H](C(F)(F)F)C2)[C@H]1c1ccccc1 (relative stereo) [Example I-260]	1 to 10	1 to 10	++ (≥150 and <350)	< 100						
COc1ncc(C(F)(F)F)cc1CN[C@H]1[C@H](C(C)(C)C)[C@@H](C(=O)O)N(C(=O)C2CCC2)[C@H]1c1ccccc1C(C)C [Example I-273]	1 to 10	< 1	+++ (≥350)	> 200						
CCc1ccccc1[C@H]1[C@@H](NCc2cc(C3CCC3)cnc2OC)[C@H](C(C)(C)C)[C@@H](C(=O)O)N1C(=O)[C@@H]1CCCO1 [Example 111, (2S,3S,4S,5S)-3-tert-butyl-4-{[(5-cyclobutyl-2-methoxypyridin-3-yl)methyl]amino}-5-(2-ethylphenyl)-1-[(2S)-oxolane-2-carbonyl]pyrrolidine-2-carboxylic acid]					1 to 10	1 to 10	+++ (≥350)	> 200		
CC(C)(C)[C@@H]1[C@@H](Nc2cc(C(F)(F)F)ccn2)[C@@H](c2ccccc2)N(C(=O)C2CCCCC2)[C@H]1C(=O)O (racemic) [III-4]					1 to 10	1 to 10			< 100	+++ (≥350)

Continued, values first:

EC50 [1] [µM]	EC50 [2] [µM]	Maximum % activity (with co-corrector) [3]	Emax (CSE-HRP, without co-corrector) [%]	EC50 [4] [µM]	EC50 [5] [µM]	Maximum % activity (with co-corrector) (with co-corrector (2 μM))	Emax (without co-corrector) [%]	Emax [6] [%]	Maximum % activity (with co-corrector) [7]	Compound
1 to 10	1 to 10	+++ (≥350)	> 200							COc1ccc(C(C)(C)C)cc1CN[C@@H]1[C@@H](C(C)(C)C)[C@H](C(=O)O)N(C(=O)OC2CCC2)[C@@H]1c1ccccc1 (racemic) [II-90]
				1 to 10	1 to 10	+++ (≥350)	100 to 200			COc1ccc(C23CC(C2)C3)cc1CN[C@H]1[C@H](C(C)(C)C)[C@@H](C(=O)O)N(C(=O)OC(C)C)[C@H]1c1cccnc1OC [Example I-224]
				1 to 10	1 to 10	+++ (≥350)	100 to 200			COc1ccc(C(F)(F)F)cc1CN[C@H]1[C@H](C(C)(C)C)[C@@H](C(=O)O)N(C(=O)C2OC[C@@H]3CCC[C@H]23)[C@H]1c1ccccc1 (relative stereo) [Example I-108]
> 10	1 to 10	++ (≥150 and <350)	< 100							COc1cc(CN[C@H]2[C@H](C(C)(C)C)[C@@H](C(=O)O)N(C(=O)C3CCCCC3)[C@H]2c2ccccc2)ccc1F [II-112]
1 to 10	1 to 10	+++ (≥350)	100 to 200							COc1cc(Cl)ccc1CN[C@@H]1[C@@H](C(C)(C)C)[C@H](C(=O)O)N(C(=O)C2CCCOC2)[C@@H]1c1ccccc1N(C)C (mixture of isomers) [II-23]
1 to 10	1 to 10	+++ (≥350)	100 to 200							COc1cc(C(C)(C)C)ccc1CN[C@H]1[C@H](C(C)(C)C)[C@@H](C(=O)O)N(C(=O)C2CCCCC2)[C@H]1c1ccccc1 [II-103]
				> 10	1 to 10			< 100	++ (≥150 and <350)	COc1cc(Cl)ccc1CN[C@@H]1[C@@H](C)[C@H](C(=O)O)N(C(=O)N(C(C)C)C(C)C)[C@@H]1c1ccccc1 (racemic) [III-39]
1 to 10	1 to 10	+++ (≥350)	100 to 200							COc1ccc(Cl)cc1CN[C@H]1[C@H](C(C)(C)C)[C@@H](C(=O)O)N(C(=O)OC(C)C)[C@H]1c1ccccc1OC [II-137]
1 to 10	1 to 10	+++ (≥350)	100 to 200							COc1ccc(C(F)(F)F)cc1CN[C@H]1[C@H](C(C)(C)C)[C@@H](C(=O)O)N(C(=O)[C@H](OC)c2ccccc2)[C@H]1c1cccnc1N(C)C (racemic) [II-33]
1 to 10	1 to 10	+++ (≥350)	< 100							Cc1cc(C(F)(F)F)cc(N[C@@H]2[C@@H](C(C)(C)C)[C@H](C(=O)O)N(C(=O)OC(C)C)[C@@H]2c2ccccc2)n1 (racemic) [II-13]
				1 to 10	1 to 10			> 200	+++ (≥350)	COc1ccc(C(C)(C)C)cc1CN[C@H]1[C@H](C(C)(C)C)[C@@H](C(=O)O)N(C(=O)C2CCN(C(=O)C3CC3)CC2)[C@H]1c1ccccc1 [II-316]
				1 to 10	1 to 10			> 200	+++ (≥350)	COc1nc(C(C)(C)C)ccc1CN[C@H]1[C@H](C(C)(C)C)[C@@H](C(=O)O)N(C(=O)[C@H]2CCC[C@@H](OC)C2)[C@H]1c1ccccc1 (relative stereo) [II-456]
				1 to 10	1 to 10			100 to 200	+++ (≥350)	COc1ccc(C(C)(C)C)cc1CN[C@H]1[C@H](C(C)(C)C)[C@@H](C(=O)O)N(C(=O)C2CC2c2ccncc2)[C@H]1c1ccccc1 (some centres unmarked) [II-331]
				> 10	> 10			< 100	+ (<150)	COc1cc(-c2ccccc2)ccc1CN[C@@H]1[C@@H](C(C)(C)C)[C@H](C(=O)O)N(C(=O)OC(C)C)[C@@H]1c1ccccc1 (racemic) [III-92]
< 1	< 1	+++ (≥350)	> 200							COc1ccc(C(C)(C)C)cc1CN[C@H]1[C@H](C(C)(C)C)[C@@H](C(=O)O)N(C(=O)[C@H](C)c2ccccc2)[C@H]1c1ccccc1 [II-315]
				1 to 10	< 1	+++ (≥350)		100 to 200		COc1ccc(C(C)(C)C)cc1CN[C@H]1[C@H](C(C)(C)C)[C@@H](C(=O)O)N(C(=O)Cc2ccc(Cl)cc2)[C@H]1c1ccccc1 [III-166]
				1 to 10	< 1			< 100	++ (≥150 and <350)	COc1ccc(CN[C@@H]2[C@@H](C(C)(C)C)[C@H](C(=O)O)N(C(=O)C3CCCCC3)[C@@H]2c2ccccc2)c(OC)c1Cl (racemic) [III-15]

Reference: patent US20180099931A1 (AbbVie S.à.r.l., priority 2016, published 2018)
